# In the supplement of paper PMC10307832:
# How the values were obtained:
# Assay in all cases: relative viability (nuclei count vs DMSO), 5 days (fraction); higher = more cells survive
# [1] = compound: COc1cc2ncn(-c3cc(OCc4ccccc4C(F)(F)F)c(C(N)=O)s3)c2cc1OC + Cc1cc(Nc2cc(N3CCN(C)CC3)nc(Sc3ccc(NC(=O)C4CC4)cc3)n2)n[nH]1 [Tozasertib] (partner 0.1 µM)
# Summary of the method: (§1)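 Relative viability divides the nuclei count in treated wells by that in vehicle wells. Lung cancer cell lines were seeded in 1536-well plates, dosed by pin tool the next day, and fixed and stained after 5 days in one step with final 0.05% Triton X-100, 1% formaldehyde and 1 ug/ml Hoechst. Dosing was a single drug or a fixed anchor-drug dose plus five library-drug doses (not always all listed) in √10 steps, and values are medians of duplicate plates imaged at 4×.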
# [2] = compound: COc1cc2ncn(-c3cc(OCc4ccccc4C(F)(F)F)c(C(N)=O)s3)c2cc1OC + CCNC(=O)c1noc(-c2cc(C(C)C)c(O)cc2O)c1-c1ccc(CN2CCOCC2)cc1 [Luminespib] (partner 0.01 µM)
# Summary of the method: as §1
# [3] = compound: COc1cc2ncn(-c3cc(OCc4ccccc4C(F)(F)F)c(C(N)=O)s3)c2cc1OC + Cc1nc(Nc2ncc(C(=O)Nc3c(C)cccc3Cl)s2)cc(N2CCN(CCO)CC2)n1 [Dasatinib] (partner 0.075 µM)
# Summary of the method: as §1
# [4] = compound: COc1cc2ncn(-c3cc(OCc4ccccc4C(F)(F)F)c(C(N)=O)s3)c2cc1OC + Cc1nc(NC(=O)N2CCC[C@H]2C(N)=O)sc1-c1ccnc(C(C)(C)C(F)(F)F)c1 [Alpelisib] (partner 2 µM)
# Summary of the method: as §1
Cell Line,relative viability ([1]; first compound 0.05 µM),relative viability ([1]; first compound 0.1581 µM),relative viability ([1]; first compound 0.5 µM),relative viability ([1]; first compound 1.581 µM),relative viability ([1]; first compound 5 µM),relative viability ([2]; first compound 0.05 µM),relative viability ([2]; first compound 0.1581 µM),relative viability ([2]; first compound 0.5 µM),relative viability ([2]; first compound 1.581 µM),relative viability ([2]; first compound 5 µM),relative viability ([3]; first compound 0.05 µM),relative viability ([3]; first compound 0.1581 µM),relative viability ([3]; first compound 0.5 µM),relative viability ([3]; first compound 1.581 µM),relative viability ([3]; first compound 5 µM),relative viability ([4]; first compound 0.05 µM),relative viability ([4]; first compound 0.1581 µM),relative viability ([4]; first compound 0.5 µM),relative viability ([4]; first compound 1.581 µM),relative viability ([4]; first compound 5 µM)
NCI-H1755,0.517,0.553,0.518,0.376,0.285,0.463,0.388,0.474,0.224,0.181,0.445,0.402,0.315,0.222,0.207,0.945,0.953,0.716,0.352,0.262
NCI-H1793,0.34,0.296,0.292,0.239,0.191,0.163,0.194,0.176,0.15,0.128,0.379,0.382,0.3,0.15,0.141,0.611,0.745,0.394,0.22,0.191
NCI-H1915,0.499,0.515,0.352,0.166,0.142,0.796,0.713,0.389,0.0805,0.0432,0.365,0.281,0.316,0.0798,0.0572,1.05,0.987,0.775,0.161,0.104
NCI-H1944,0.297,0.3,0.274,0.23,0.216,0.512,0.705,0.543,0.177,0.0836,0.227,0.223,0.191,0.127,0.109,0.871,0.901,0.619,0.173,0.118
NCI-H1975,0.677,0.453,0.173,0.138,0.126,0.229,0.26,0.184,0.163,0.233,0.415,0.335,0.207,0.126,0.109,0.645,0.609,0.359,0.153,0.152
NCI-H1993,0.581,0.613,0.566,0.637,0.661,0.756,0.8,0.548,0.463,0.448,0.649,0.555,0.528,0.503,0.424,0.662,0.674,0.605,0.519,0.517
NCI-H2009,0.625,0.625,0.353,0.301,0.227,1.03,0.941,0.819,0.127,0.101,0.297,0.256,0.152,0.128,0.0782,1.07,1.05,0.667,0.169,0.154
NCI-H2023,0.24,0.341,0.164,0.132,0.0834,0.735,0.679,0.299,0.0886,0.0831,0.566,0.532,0.355,0.096,0.0804,0.547,0.634,0.61,0.0955,0.0801
NCI-H2085,0.761,0.738,0.403,0.407,0.454,0.37,0.401,0.357,0.273,0.253,0.23,0.233,0.221,0.217,0.209,1.01,0.959,0.75,0.4,0.386
NCI-H2087,0.255,0.253,0.144,0.126,0.114,0.174,0.177,0.162,0.14,0.167,0.8,0.656,0.583,0.117,0.075,1.18,0.953,0.311,0.169,0.142
NCI-H2126,0.756,0.908,0.521,0.218,0.245,0.957,0.875,0.532,0.288,0.265,0.584,0.638,0.463,0.248,0.221,0.731,0.803,0.668,0.293,0.234
NCI-H2170,0.619,0.745,0.309,0.193,0.26,0.4,0.845,0.415,0.189,0.177,0.545,0.406,0.374,0.163,0.156,0.789,0.799,0.41,0.176,0.18
NCI-H2228,0.291,0.258,0.133,0.178,0.201,0.114,0.159,0.147,0.139,0.126,0.381,0.472,0.176,0.132,0.181,0.612,0.866,0.186,0.187,0.272
NCI-H2347,0.464,0.622,0.264,0.372,0.363,0.522,0.303,0.419,0.346,0.465,0.32,0.258,0.278,0.228,0.258,0.896,0.92,0.813,0.581,0.735
NCI-H2405,0.88,0.803,0.368,0.325,0.327,0.76,0.601,0.341,0.283,0.338,0.24,0.21,0.171,0.162,0.131,0.788,0.634,0.402,0.401,0.38
NCI-H3122,0.359,0.392,0.211,0.286,0.284,0.0893,0.0896,0.149,0.0746,0.0906,0.895,0.562,0.373,0.125,0.0999,0.842,0.514,0.203,0.149,0.197
